Reference: US20130254944A1, “Herbicide Tolerant Soybeans and Methods of Use” (PIONEER HI BRED INTERNATIONAL INC, priority 2012, published 2013)

What was measured:
Type in all cases: in vivo
[1] = system: soybean having the Als2 mutation; assay: Greenhouse postemergence test of ALS-inhibiting herbicides, soybean with Als2 mutation; settings: for Avg response (% phytotoxicity), Trait Als2: Table 2
Procedure: (§1) Soybean lines having wild type als1 & 2 genes, the Als1 mutation, the Als2 mutation, or both the Als1 and Als2 mutations were evaluated for their response to various herbicides. Two seeds from each line were planted into 4-inch pots containing Redi-Earth potting mix (Sun Gro Horticulture Canada Ltd. 52130 RR65, Seba Beach, Alberta TOE 2B0), with two replications planted for each treatment. Pots were placed in flats at 15 pots/flat, and the resulting plants were grown in a greenhouse environment supplemented with lighting (16 hr photoperiod) for the duration of the test. Selected herbicides representing the mode of action that inhibits the acetolactate synthase enzyme, also known as the acetohydroxyacid synthase enzyme, were applied postemergence to soybean when soybean plants were at the V2 growth stage, which is the stage at which the first two trifoliolate leaves were expanded.
(§2) Eleven active ingredients representing the five chemical families with herbicidal activity on the acetolactate synthase enzyme were tested. These herbicides can cause a phytotoxic response in wild type soybean plants. The five chemical families tested were sulfonylaminocarbonyltriazolinone (also known as triazolinone), imidazolinone, sulfonylurea, pyrimidinylthiobenzoate, and triazolopyrimidine. Application rates ranged from 0.5 times to eight times the currently labeled application rate for each active ingredient with spray application volume at 30 gallons/acre. The application rates tested were 0.5×, 1×, 2×, 4× and 8× the label rate for each herbicide. Herbicidal active ingredients were applied as formulated materials dispersed in water containing 0.25% nonionic surfactant (Trend® 90).
(§3) The test was evaluated by visually scoring plant phenotype 14 days after the herbicides were applied. Controls consisted of soybean plants of the same variety that received no herbicide treatments for each of all the varieties tested. Soybean response was recorded on a zero to 100 visual scale in which zero is no phytotoxic response and 100 is plant death fourteen days after the herbicides were applied. Soybean response (percent phytotoxicity) to postemergence applications of herbicides inhibiting the acetolactate synthase enzyme test results are shown in Table 1.
(§4) Results in Table 1 were evaluated using the isobole method for analyzing interactions. […] Here the biologically active agents that are being assessed for interaction (synergy) are gene mutations in soybean. The effectiveness of the genes in providing improved tolerance to ALS-inhibiting herbicides was assessed by applying increasing doses of herbicides to each soybean line with its mutation(s).
(§5) An isobole reduces a dose response surface in three dimensional space to a two dimensional plot by fixing a defined response level (e.g., 50% response). The isobole plot is a graph in the Cartesian plane with a straight line connecting the isoeffective rates of the individual components of the combination. This straight line represents expected responses for zero interactive combinations. The isoeffective rate used to create the isobole is often the EC50, the rate estimated to elicit 50% response, but other ECx values can be used. Since the isobole method is based on the potency of the components of the combination, an experimental design testing a range of rates expected to elicit the full range of responses (e.g., 0 to maximum response) is best. (Ferry et al. (2005) 2005 Conference on Applied Statistics in Agriculture Proceedings pp 33-50, Manhattan, Kans., Kansas State Univ.; Green and Streibig (1993) Herbicide Mixtures, pp 117-134 in Herbicide Bioassays, Streibig and Hudsk Eds, CRC, Boca Raton, Fla.).
(§6) Loglogistic dose response curves were fit to percent phytotoxicity response data using log 10 of dose (McCullagh and Nelder (1989) Generalized Linear Models, Chapman & Hall, London). Curves were fit using the logit link with normal errors. […]

[2] = system: soybean having the Als1 mutation; assay: Greenhouse postemergence test of ALS-inhibiting herbicides, soybean with Als1 mutation; settings: for Avg response (% phytotoxicity), Trait Als1: Table 2
Procedure: as §1, §2, §3, §4, §5, §6

[3] = system: soybean having both the Als1 and Als2 mutations; assay: Greenhouse postemergence test of ALS-inhibiting herbicides and isobole analysis, soybean with Als1 and Als2 mutations; settings: for Avg response (% phytotoxicity), Trait Als1 + Als2: Table 2
Procedure: as §1, §2, §3, §4, §5, §6

wild type soybean = assay: Greenhouse postemergence test of ALS-inhibiting herbicides, wild type soybean
Procedure: as §1, §2, §3

[4] = 8.75 g ai/ha postemergence at V2, scored 14 days after application
[5] = 17.5 g ai/ha postemergence at V2, scored 14 days after application
[6] = 35 g ai/ha postemergence at V2, scored 14 days after application
[7] = 70 g ai/ha postemergence at V2, scored 14 days after application
[8] = 140 g ai/ha postemergence at V2, scored 14 days after application
[9] = rates 0.5x to 8x the label rate
[10] = 4.38 g ai/ha postemergence at V2, scored 14 days after application
[11] = rate of herbicide estimated to cause 10% phytotoxic response, loglogistic fit

In the case of `COc1cc(Cl)nc(NC(=O)NS(=O)(=O)c2ccccc2C(=O)O)n1` [Chlorimuron], the “Soybean response (percent phytotoxicity), Als2” value [1, 4] is reported as 0%, the “Soybean response (percent phytotoxicity), Als2” value [1, 5] is reported as 0% and the “Soybean response (percent phytotoxicity), Als2” value [1, 6] is reported as 0%. The “Soybean response (percent phytotoxicity), Als2” value [1, 7] was 0%, the “Soybean response (percent phytotoxicity), Als2” value [1, 8] was 0% and the “phytotoxic response (in words), Als2” value [1, 9] was “did not cause any phytotoxic response”. The “Soybean response (percent phytotoxicity), Als1” value [2, 4] was 0%, the “Soybean response (percent phytotoxicity), Als1” value [2, 5] was 0% and the “Soybean response (percent phytotoxicity), Als1” value [2, 6] was 0%. For the same compound, the “Soybean response (percent phytotoxicity), Als1” value [2, 7] was 0%, the “Soybean response (percent phytotoxicity), Als1” value [2, 8] was 0% and the “phytotoxic response (in words), Als1” value [2, 9] was “did not cause any phytotoxic response”. For the same compound, the “Soybean response (percent phytotoxicity), Als1 + Als2” value [3, 4] was 0%, the “Soybean response (percent phytotoxicity), Als1 + Als2” value [3, 5] was 0% and the “Soybean response (percent phytotoxicity), Als1 + Als2” value [3, 6] was 0%. For the same compound, the “Soybean response (percent phytotoxicity), Als1 + Als2” value [3, 7] was 0%, the “Soybean response (percent phytotoxicity), Als1 + Als2” value [3, 8] was 0% and the “phytotoxic response (in words), Als1+Als2” value [3, 9] was “did not cause any phytotoxic response”. For the same compound, the “Soybean response (percent phytotoxicity), Wild type” value (wild type soybean; [4]) was 0%, the “Soybean response (percent phytotoxicity), Wild type” value (wild type soybean; [5]) was 5% and the “Soybean response (percent phytotoxicity), Wild type” value (wild type soybean; [6]) was 20%. The “Soybean response (percent phytotoxicity), Wild type” value (wild type soybean; [7]) was 35% and the “Soybean response (percent phytotoxicity), Wild type” value (wild type soybean; [8]) was 45%.

With `COc1nc(C)nc(N(C)C(=O)NS(=O)(=O)c2ccccc2C(=O)O)n1` [Tribenuron] the “Soybean response (percent phytotoxicity), Als2” value [1, 10] was 0%, the “Avg response (% phytotoxicity), Trait Als2” value ([1]; 4.38 g ai/ha) was 0% and the “Soybean response (percent phytotoxicity), Als2” value [1, 4] was 15%. The “Avg response (% phytotoxicity), Trait Als2” value ([1]; 8.75 g ai/ha) was 15%, the “Soybean response (percent phytotoxicity), Als2” value [1, 5] was 40% and the “Avg response (% phytotoxicity), Trait Als2” value ([1]; 17.5 g ai/ha) was 40%. The “Soybean response (percent phytotoxicity), Als2” value [1, 6] was 60%, the “Avg response (% phytotoxicity), Trait Als2” value ([1]; 35 g ai/ha) was 60% and the “Soybean response (percent phytotoxicity), Als2” value [1, 7] was 65%. For the same compound, the “Avg response (% phytotoxicity), Trait Als2” value ([1]; 70 g ai/ha) was 65%, the “EC10, Als2” value [1, 11] was 4.96 g ai/ha and the “Soybean response (percent phytotoxicity), Als1” value [2, 10] was 0%. The “Avg response (% phytotoxicity), Trait Als1” value ([2]; 4.38 g ai/ha) was 0%, the “Soybean response (percent phytotoxicity), Als1” value [2, 4] was 0% and the “Avg response (% phytotoxicity), Trait Als1” value ([2]; 8.75 g ai/ha) was 0%. The “Soybean response (percent phytotoxicity), Als1” value [2, 5] was 0%, the “Avg response (% phytotoxicity), Trait Als1” value ([2]; 17.5 g ai/ha) was 0% and the “Soybean response (percent phytotoxicity), Als1” value [2, 6] was 0%. For the same compound, the “Avg response (% phytotoxicity), Trait Als1” value ([2]; 35 g ai/ha) was 0%, the “Soybean response (percent phytotoxicity), Als1” value [2, 7] was 10% and the “Avg response (% phytotoxicity), Trait Als1” value ([2]; 70 g ai/ha) was 10%. The “EC10, Als1” value [2, 11] was 70 g ai/ha, the “Soybean response (percent phytotoxicity), Als1 + Als2” value [3, 10] was 0% and the “Avg response (% phytotoxicity), Trait Als1 + Als2” value ([3]; 4.38 g ai/ha) was 0%. For the same compound, the “Soybean response (percent phytotoxicity), Als1 + Als2” value [3, 4] was 0%, the “Avg response (% phytotoxicity), Trait Als1 + Als2” value ([3]; 8.75 g ai/ha) was 0% and the “Soybean response (percent phytotoxicity), Als1 + Als2” value [3, 5] was 0%. The “Avg response (% phytotoxicity), Trait Als1 + Als2” value ([3]; 17.5 g ai/ha) was 0%, the “Soybean response (percent phytotoxicity), Als1 + Als2” value [3, 6] was 0% and the “Avg response (% phytotoxicity), Trait Als1 + Als2” value ([3]; 35 g ai/ha) was 0%. The “Soybean response (percent phytotoxicity), Als1 + Als2” value [3, 7] was 0%, the “Avg response (% phytotoxicity), Trait Als1 + Als2” value ([3]; 70 g ai/ha) was 0% and the “EC10, Als1 + Als2” value [3, 11] was over 70 g ai/ha. The “Soybean response (percent phytotoxicity), Wild type” value (wild type soybean; [10]) was 10%, the “Soybean response (percent phytotoxicity), Wild type” value (wild type soybean; [4]) was 70% and the “Soybean response (percent phytotoxicity), Wild type” value (wild type soybean; [5]) was 93%. For the same compound, the “Soybean response (percent phytotoxicity), Wild type” value (wild type soybean; [6]) was 98% and the “Soybean response (percent phytotoxicity), Wild type” value (wild type soybean; [7]) was 98%.
